In patent US20090196910A1, “Sustained-Release Preparation of Statin Drugs” (PFICKER PHARMACEUTICALS LTD., priority 2005, published 2009):

Tests used:
[1] = oral administration; cited from earlier work
[2] = test system: carboxylate hydrolases in human blood; test: Hydrolysis of 4-esters of statin drugs by ester hydrolases in vitro; format: in vitro ADME; details: pH 6.5-7.5
Text: As shown in the in vitro experiments, the esters of statin drugs formed at the 4-hydroxyl group can be transformed into statin drugs by many dominant human ester hydrolases at a pH of 6.5-7.5.

Compound	bio-availability [1]	transformation into the statin drug by ester hydrolases [2]
CC(C)c1c(C(=O)Nc2ccccc2)c(-c2ccccc2)c(-c2ccc(F)cc2)n1CC[C@@H](O)C[C@@H](O)CC(=O)O [atovastatin]	no more than 14%	
CCC(C)(C)C(=O)O[C@H]1C[C@@H](C)C=C2C=C[C@H](C)C(CC[C@@H]3C[C@@H](OC(C)=O)CC(=O)O3)C21 (some centres unmarked) [4-acetate of simvastatin]		readily transformed into simvastatin
